Reference: ChEMBL document CHEMBL3885881, “DrugMatrix”

Species: Rattus norvegicus
Test: DrugMatrix - Regimen: Daily Repeat
Assay type: toxicity, organism-based, Sprague-Dawley
Set-up: regimen Daily Repeat, gender Male, age 6-8 weeks
Conditions: in vivo, sc, route subcutaneous, […]; for ABSOLUTE BASOPHIL / ABSOLUTE EOSINOPHIL / ABSOLUTE LYMPHOCYTE / ABSOLUTE MONOCYTE / ABSOLUTE SEGMENTED NEUTROPHIL / BASOPHIL / EOSINOPHIL / ERYTHROCYTE COUNT / HEMATOCRIT / HEMOGLOBIN / LEUKOCYTE COUNT / LYMPHOCYTE / MEAN CORPUSCULAR HEMOGLOBIN / MEAN CORPUSCULAR HEMOGLOBIN CONCENTRATION / MEAN CORPUSCULAR VOLUME / MONOCYTE / NEUTROPHIL / NUCLEATED RED BLOOD CELLS / PLATELET COUNT: tissue Blood; for ALANINE AMINOTRANSFERASE / ALKALINE PHOSPHATASE / ASPARTATE AMINOTRANSFERASE / BLOOD UREA NITROGEN / CARBON DIOXIDE / CHLORIDE / CHOLESTEROL / CREATINE PHOSPHOKINASE / CREATININE / GLUCOSE / LACTATE DEHYDROGENASE / LIPASE / PHOSPHORUS / POTASSIUM / SODIUM / TOTAL BILIRUBIN / TOTAL PROTEIN / URIC ACID: tissue Plasma
[1] = 17 mg/kg, 120 h, dose level Low, time 5 day
[2] = 800 mg/kg, 72 h, dose level High, time 3 day
[3] = 800 mg/kg, 120 h, dose level High, time 5 day

With `CC(C)Cn1cnc2c(N)nc3ccccc3c21` [IMIQUIMOD] the “ABSOLUTE BASOPHIL” value [1] was 0 CELLS/uL, the “ABSOLUTE EOSINOPHIL” value [1] was 29.67 CELLS/uL and the “ABSOLUTE LYMPHOCYTE” value [1] was 8944.33 CELLS/uL. The “ABSOLUTE MONOCYTE” value [1] was 43 CELLS/uL, the “ABSOLUTE SEGMENTED NEUTROPHIL” value [1] was 1349.67 CELLS/uL and the BASOPHIL [1] was 0%. The EOSINOPHIL [1] was 0.33%, the “ERYTHROCYTE COUNT” value [1] was 5.45 x10E6/uL and the HEMATOCRIT [1] was 33.33%. For the same compound, the HEMOGLOBIN [1] was 12.27 G/DL, the “LEUKOCYTE COUNT” value [1] was 10.37 x10E3/uL and the LYMPHOCYTE [1] was 85.67%. For the same compound, the “MEAN CORPUSCULAR HEMOGLOBIN” value [1] was 22.53 pg, the “MEAN CORPUSCULAR HEMOGLOBIN CONCENTRATION” value [1] was 36.77 G/DL and the “MEAN CORPUSCULAR VOLUME” value [1] was 61.17 fL. For the same compound, the MONOCYTE [1] was 0.33%, the NEUTROPHIL [1] was 13.67% and the “NUCLEATED RED BLOOD CELLS” value [1] was 0.67 /100WBC. For the same compound, the “PLATELET COUNT” value [1] was 1497.33 x10E3/uL, the “ALANINE AMINOTRANSFERASE” value [1] was 53 u/L and the “ALKALINE PHOSPHATASE” value [1] was 401.33 u/L. For the same compound, the “ASPARTATE AMINOTRANSFERASE” value [1] was 93.33 u/L, the “BLOOD UREA NITROGEN” value [1] was 17 mg/dL and the “CARBON DIOXIDE” value [1] was 23.67 mmol/L. The CHLORIDE [1] was 108.67 MEQ/L, the CHOLESTEROL [1] was 52.33 mg/dL and the “CREATINE PHOSPHOKINASE” value [1] was 410.67 u/L. The CREATININE [1] was 0.19 mg/dL, the GLUCOSE [1] was 174.67 mg/dL and the “LACTATE DEHYDROGENASE” value [1] was 110 u/L. For the same compound, the LIPASE [1] was 7 u/L, the PHOSPHORUS [1] was 13.1 mg/dL and the POTASSIUM [1] was 6.07 MEQ/L. The SODIUM [1] was 146.2 MEQ/L, the “TOTAL BILIRUBIN” value [1] was 0.2 mg/dL and the “TOTAL PROTEIN” value [1] was 5.23 G/DL. The “URIC ACID” value [1] was 1.73 mg/dL, the “ABSOLUTE BASOPHIL” value [2] was 0 CELLS/uL and the “ABSOLUTE EOSINOPHIL” value [2] was 67.67 CELLS/uL. For the same compound, the “ABSOLUTE LYMPHOCYTE” value [2] was 7240 CELLS/uL, the “ABSOLUTE MONOCYTE” value [2] was 88 CELLS/uL and the “ABSOLUTE SEGMENTED NEUTROPHIL” value [2] was 637.67 CELLS/uL. For the same compound, the BASOPHIL [2] was 0%, the EOSINOPHIL [2] was 1% and the “ERYTHROCYTE COUNT” value [2] was 5.31 x10E6/uL. For the same compound, the HEMATOCRIT [2] was 33.3%, the HEMOGLOBIN [2] was 12.5 G/DL and the “LEUKOCYTE COUNT” value [2] was 8.03 x10E3/uL. The LYMPHOCYTE [2] was 90%, the “MEAN CORPUSCULAR HEMOGLOBIN” value [2] was 23.57 pg and the “MEAN CORPUSCULAR HEMOGLOBIN CONCENTRATION” value [2] was 37.57 G/DL. For the same compound, the “MEAN CORPUSCULAR VOLUME” value [2] was 62.73 fL, the MONOCYTE [2] was 1% and the NEUTROPHIL [2] was 8%. The “NUCLEATED RED BLOOD CELLS” value [2] was 0 /100WBC, the “PLATELET COUNT” value [2] was 828 x10E3/uL and the “ALANINE AMINOTRANSFERASE” value [2] was 47 u/L. The “ALKALINE PHOSPHATASE” value [2] was 345.33 u/L, the “ASPARTATE AMINOTRANSFERASE” value [2] was 91.67 u/L and the “BLOOD UREA NITROGEN” value [2] was 15.67 mg/dL. For the same compound, the “CARBON DIOXIDE” value [2] was 28.67 mmol/L, the CHLORIDE [2] was 107 MEQ/L and the CHOLESTEROL [2] was 65 mg/dL. For the same compound, the “CREATINE PHOSPHOKINASE” value [2] was 419.33 u/L, the CREATININE [2] was 0.27 mg/dL and the GLUCOSE [2] was 147 mg/dL. For the same compound, the “LACTATE DEHYDROGENASE” value [2] was 130.67 u/L, the LIPASE [2] was 7.5 u/L and the PHOSPHORUS [2] was 10.23 mg/dL. The POTASSIUM [2] was 5.87 MEQ/L, the SODIUM [2] was 147.45 MEQ/L and the “TOTAL BILIRUBIN” value [2] was 0.13 mg/dL. For the same compound, the “TOTAL PROTEIN” value [2] was 5.17 G/DL, the “URIC ACID” value [2] was 0.73 mg/dL and the “ABSOLUTE BASOPHIL” value [3] was 0 CELLS/uL. For the same compound, the “ABSOLUTE EOSINOPHIL” value [3] was 301.33 CELLS/uL, the “ABSOLUTE LYMPHOCYTE” value [3] was 14418.33 CELLS/uL and the “ABSOLUTE MONOCYTE” value [3] was 118 CELLS/uL. For the same compound, the “ABSOLUTE SEGMENTED NEUTROPHIL” value [3] was 5662.33 CELLS/uL, the BASOPHIL [3] was 0% and the EOSINOPHIL [3] was 1.33%. For the same compound, the “ERYTHROCYTE COUNT” value [3] was 4.85 x10E6/uL, the HEMATOCRIT [3] was 30.53% and the HEMOGLOBIN [3] was 12.07 G/DL. The “LEUKOCYTE COUNT” value [3] was 20.5 x10E3/uL, the LYMPHOCYTE [3] was 70.33% and the “MEAN CORPUSCULAR HEMOGLOBIN” value [3] was 24.9 pg. The “MEAN CORPUSCULAR HEMOGLOBIN CONCENTRATION” value [3] was 39.5 G/DL, the “MEAN CORPUSCULAR VOLUME” value [3] was 62.93 fL and the MONOCYTE [3] was 0.67%. The NEUTROPHIL [3] was 27.67%, the “NUCLEATED RED BLOOD CELLS” value [3] was 0.33 /100WBC and the “PLATELET COUNT” value [3] was 1467 x10E3/uL. The “ALANINE AMINOTRANSFERASE” value [3] was 44 u/L, the “ALKALINE PHOSPHATASE” value [3] was 267.67 u/L and the “ASPARTATE AMINOTRANSFERASE” value [3] was 86 u/L. The “BLOOD UREA NITROGEN” value [3] was 18 mg/dL, the “CARBON DIOXIDE” value [3] was 25 mmol/L and the CHLORIDE [3] was 103.67 MEQ/L. The CHOLESTEROL [3] was 58 mg/dL, the “CREATINE PHOSPHOKINASE” value [3] was 257.33 u/L and the CREATININE [3] was 0.29 mg/dL. The GLUCOSE [3] was 184.67 mg/dL, the “LACTATE DEHYDROGENASE” value [3] was 248 u/L and the LIPASE [3] was 7.67 u/L. For the same compound, the PHOSPHORUS [3] was 11.8 mg/dL, the POTASSIUM [3] was 5.8 MEQ/L and the SODIUM [3] was 142.87 MEQ/L. For the same compound, the “TOTAL BILIRUBIN” value [3] was 0.17 mg/dL, the “TOTAL PROTEIN” value [3] was 5.3 G/DL and the “URIC ACID” value [3] was 1.6 mg/dL.
